Measurements taken from ChEMBL document CHEMBL1833839, “Discovery of potent and novel S-nitrosoglutathione reductase inhibitors devoid of cytochrome P450 activities” (Bioorg Med Chem Lett, 2011).
Activity calls are given as the source filed them. No cut-off for these calls is given here.

How the values were obtained:
[1] = Inhibition of S-nitrosoglutathione reductase expressed in Escherichia coli after 3 mins by UV/Vis spectrophotometry
CYP1A2 = molecular target: T1, CYP1A2 (Homo sapiens, UniProt P05177); assay: Inhibition of CYP1A2 at 10 uM; format: ADME
T1 sequence (P05177 whole entry): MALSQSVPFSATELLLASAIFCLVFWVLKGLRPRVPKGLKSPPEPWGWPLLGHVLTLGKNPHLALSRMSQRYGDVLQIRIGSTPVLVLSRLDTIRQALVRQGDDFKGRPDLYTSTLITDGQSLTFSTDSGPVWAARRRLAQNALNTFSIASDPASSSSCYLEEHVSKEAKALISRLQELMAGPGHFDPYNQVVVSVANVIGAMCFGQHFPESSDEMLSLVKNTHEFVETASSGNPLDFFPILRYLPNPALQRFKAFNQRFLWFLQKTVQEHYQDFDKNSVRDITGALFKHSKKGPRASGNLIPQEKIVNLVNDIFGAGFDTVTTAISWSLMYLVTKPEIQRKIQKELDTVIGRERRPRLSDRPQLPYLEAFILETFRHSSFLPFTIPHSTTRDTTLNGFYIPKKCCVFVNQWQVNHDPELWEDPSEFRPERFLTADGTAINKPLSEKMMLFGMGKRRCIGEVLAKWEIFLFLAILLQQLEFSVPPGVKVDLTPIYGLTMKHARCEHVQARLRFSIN

CYP2C9 = CYP2C9 (Homo sapiens, UniProt P11712); assay: Inhibition of CYP2C9 at 10 uM; format: ADME
CYP2C9, sequence (P11712 whole entry): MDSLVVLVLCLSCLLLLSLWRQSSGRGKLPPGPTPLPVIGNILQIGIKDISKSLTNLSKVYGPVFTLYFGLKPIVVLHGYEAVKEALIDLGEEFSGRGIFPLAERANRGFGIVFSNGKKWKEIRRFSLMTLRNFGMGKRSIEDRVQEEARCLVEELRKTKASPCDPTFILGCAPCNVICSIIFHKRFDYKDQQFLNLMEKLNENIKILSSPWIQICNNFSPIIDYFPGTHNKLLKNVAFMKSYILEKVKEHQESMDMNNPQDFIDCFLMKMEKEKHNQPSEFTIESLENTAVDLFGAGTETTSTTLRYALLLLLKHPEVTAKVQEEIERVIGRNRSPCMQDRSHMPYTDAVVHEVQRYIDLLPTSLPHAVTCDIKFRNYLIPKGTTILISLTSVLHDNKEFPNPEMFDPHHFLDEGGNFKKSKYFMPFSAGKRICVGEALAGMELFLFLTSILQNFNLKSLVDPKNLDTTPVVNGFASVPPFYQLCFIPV

CYP2C19 = CYP2C19 (Homo sapiens, UniProt P33261); assay: Inhibition of CYP2C19 at 10 uM; format: ADME
CYP2C19, sequence (P33261 whole entry): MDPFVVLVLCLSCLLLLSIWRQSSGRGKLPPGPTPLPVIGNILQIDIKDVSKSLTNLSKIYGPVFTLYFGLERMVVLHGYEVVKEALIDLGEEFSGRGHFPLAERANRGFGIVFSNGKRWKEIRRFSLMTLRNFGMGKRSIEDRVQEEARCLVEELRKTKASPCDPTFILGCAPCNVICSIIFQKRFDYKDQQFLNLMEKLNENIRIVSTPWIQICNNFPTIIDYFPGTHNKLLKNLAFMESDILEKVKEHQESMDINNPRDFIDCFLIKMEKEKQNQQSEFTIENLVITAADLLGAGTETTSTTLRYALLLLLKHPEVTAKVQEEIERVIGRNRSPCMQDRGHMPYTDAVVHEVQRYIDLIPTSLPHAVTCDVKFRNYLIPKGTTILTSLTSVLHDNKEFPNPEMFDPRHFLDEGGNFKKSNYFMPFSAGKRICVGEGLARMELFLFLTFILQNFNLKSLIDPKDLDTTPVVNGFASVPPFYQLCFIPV

CYP2D6 = CYP2D6 (Homo sapiens, UniProt P10635); assay: Inhibition of CYP2D6 at 10 uM; format: ADME
CYP2D6, sequence (P10635 whole entry): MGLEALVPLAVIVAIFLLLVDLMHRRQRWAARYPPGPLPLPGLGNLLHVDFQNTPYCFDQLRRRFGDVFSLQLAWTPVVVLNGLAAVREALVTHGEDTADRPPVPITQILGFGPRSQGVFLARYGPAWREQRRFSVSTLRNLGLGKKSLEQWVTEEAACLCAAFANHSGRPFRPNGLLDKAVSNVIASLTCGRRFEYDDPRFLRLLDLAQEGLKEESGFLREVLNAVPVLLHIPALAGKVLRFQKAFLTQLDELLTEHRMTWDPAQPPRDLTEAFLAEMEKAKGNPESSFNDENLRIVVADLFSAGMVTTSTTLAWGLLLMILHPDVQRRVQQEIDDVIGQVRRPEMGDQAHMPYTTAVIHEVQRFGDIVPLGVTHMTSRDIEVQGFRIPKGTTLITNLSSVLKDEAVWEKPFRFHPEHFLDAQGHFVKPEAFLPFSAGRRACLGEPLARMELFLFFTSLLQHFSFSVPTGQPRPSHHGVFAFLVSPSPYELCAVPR

CYP3A4 = CYP3A4 (Homo sapiens, UniProt P08684); assay: Inhibition of CYP3A4 at 10 uM; format: ADME
CYP3A4, sequence (P08684 whole entry): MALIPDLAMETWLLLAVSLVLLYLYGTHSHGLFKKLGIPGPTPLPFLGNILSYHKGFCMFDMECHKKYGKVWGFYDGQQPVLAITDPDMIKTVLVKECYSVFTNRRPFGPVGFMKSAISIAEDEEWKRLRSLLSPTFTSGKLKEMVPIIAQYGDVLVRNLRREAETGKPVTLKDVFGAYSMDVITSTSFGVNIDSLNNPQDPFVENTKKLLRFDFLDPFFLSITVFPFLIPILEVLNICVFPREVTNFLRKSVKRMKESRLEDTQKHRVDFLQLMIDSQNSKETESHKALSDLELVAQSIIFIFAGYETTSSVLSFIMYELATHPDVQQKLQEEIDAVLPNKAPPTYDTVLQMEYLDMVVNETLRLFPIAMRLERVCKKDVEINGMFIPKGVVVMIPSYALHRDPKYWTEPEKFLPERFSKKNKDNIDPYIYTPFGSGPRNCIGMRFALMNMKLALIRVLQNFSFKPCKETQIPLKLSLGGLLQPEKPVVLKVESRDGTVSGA

[2] = molecular target: Mu-type opioid receptor (Homo sapiens) (UniProt P35372); assay: Binding affinity to human recombinant mu opioid receptor at 10 uM by radioligand displacement assay
Mu-type opioid receptor (Homo sapiens), sequence (P35372 whole entry): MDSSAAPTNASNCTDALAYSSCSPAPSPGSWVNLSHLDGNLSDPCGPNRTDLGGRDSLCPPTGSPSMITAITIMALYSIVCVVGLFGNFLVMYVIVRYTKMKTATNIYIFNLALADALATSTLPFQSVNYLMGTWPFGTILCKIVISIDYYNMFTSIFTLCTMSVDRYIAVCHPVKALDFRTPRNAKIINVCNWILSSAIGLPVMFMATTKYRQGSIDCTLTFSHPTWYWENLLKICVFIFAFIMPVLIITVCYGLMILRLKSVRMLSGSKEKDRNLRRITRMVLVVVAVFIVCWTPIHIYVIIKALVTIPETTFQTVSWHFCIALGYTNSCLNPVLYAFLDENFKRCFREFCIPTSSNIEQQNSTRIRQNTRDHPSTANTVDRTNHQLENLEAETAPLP

Cytochrome P450 2C19 = Cytochrome P450 2C19 (Homo sapiens, UniProt P33261); assay: Inhibition of CYP2C19; format: ADME
Cytochrome P450 2C19, sequence (P33261 whole entry): as the sequence (P33261 whole entry) above

Homo sapiens = organism: Homo sapiens; assay: Binding affinity to human recombinant delta2 opiate receptor by radioligand displacement assay

Compound | IC50 ([1]; read-out: IC50) [µM] | also measured
Cc1cc(C(N)=O)ccc1-n1c(CCC(=O)O)ccc1-c1cnc(-n2ccnc2)nc1 | 0.15 | 
Cc1cc(C(N)=O)ccc1-n1c(CCC(=O)O)ccc1-c1ccc(-n2ccnc2)cn1 | 0.36 | 
Cc1cc(C(N)=O)ccc1-n1c(CCC(=O)O)ccc1-c1ccc(-n2ccnc2)nc1 | 2.3 | 
Cc1cc(C(N)=O)ccc1-n1c(CCC(=O)O)ccc1-c1ccc(N2CCOCC2)cc1 | 8.17 | 
Cc1cc(C(N)=O)ccc1-n1c(CCC(=O)O)ccc1-c1ccc(-n2ccnc2C(C)C)cc1 |  | IC50 [1]: Not Active
Cc1cc(C(N)=O)ccc1-n1c(CCC(=O)O)ccc1-c1ccc(-n2ccnc2)s1 |  | inhibition at 10 µM (CYP1A2): 77%; inhibition at 10 µM (CYP2C9): 92%; inhibition at 10 µM (CYP2C19): 83%; inhibition at 10 µM (CYP2D6): 96%; inhibition at 10 µM (CYP3A4): 91%
Cc1cc(C(N)=O)ccc1-n1c(CCC(=O)O)ccc1-c1cc(-n2ccnc2C)cs1 |  | inhibition at 10 µM (CYP1A2): -11%; inhibition at 10 µM (CYP2C9): 13%; inhibition at 10 µM (CYP2C19): 11%; inhibition at 10 µM (CYP2D6): 12%; inhibition at 10 µM (CYP3A4): 18%; inhibition [2]: 69%
Cc1cc(C(N)=O)ccc1-n1c(CCC(=O)O)ccc1-c1csc(-n2ccnc2C)c1 | 0.048 | 
Cc1cc(C(N)=O)ccc1-n1c(CCC(=O)O)ccc1-c1cc(-n2ccnc2)cs1 | 0.026 | 
Cc1cc(C(N)=O)ccc1-n1c(CCC(=O)O)ccc1-c1ccc(-c2ccccc2)cc1 | 6.16 | 
Cc1cc(C(N)=O)ccc1-n1c(CCC(=O)O)ccc1-c1ccc(N2CCOC2=O)cc1 | 53.5 | 
Cc1cc(C(N)=O)ccc1-n1c(CCC(=O)O)ccc1-c1ccc(-c2ccc(=O)[nH]c2)cc1 | 19 | 
Cc1cc(C(N)=O)ccc1-n1c(CCC(=O)O)ccc1-c1ccc(-c2ccncc2)cc1 | 9.8 | 
CCc1nccn1-c1ccc(-c2ccc(CCC(=O)O)n2-c2ccc(C(N)=O)cc2C)s1 | 0.048 | 
Cc1cc(C(N)=O)ccc1-n1c(CCC(=O)O)ccc1-c1ccc(-c2cncs2)cc1 | 0.76 | 
Cc1cc(C(N)=O)ccc1-n1c(CCC(=O)O)ccc1-c1ccc(-n2ccnc2C(F)(F)F)cc1 |  | IC50 [1]: Not Active
Cc1cc(C(N)=O)ccc1-n1c(CCC(=O)O)ccc1-c1ccc(-n2ccnc2C)s1 |  | inhibition at 10 µM (CYP1A2): -8%; inhibition at 10 µM (CYP2C9): 15%; inhibition at 10 µM (CYP2C19): 25%; inhibition at 10 µM (CYP2D6): 10%; inhibition at 10 µM (CYP3A4): 27%
Cc1cc(C(N)=O)ccc1-n1c(CCC(=O)O)ccc1-c1ccc(-c2ccsc2)cc1 | 29.3 | 
Cc1cc(C(N)=O)ccc1-n1c(CCC(=O)O)ccc1-c1ccc(-n2ccnc2)o1 | 0.9 | 
Cc1cc(C(N)=O)ccc1-n1c(CCC(=O)O)ccc1-c1ccc(-c2nnn[nH]2)cc1 | 1.75 | 
Cc1cc(C(N)=O)ccc1-n1c(CCC(=O)O)ccc1-c1cnc(-n2ccnc2)s1 | 1.57 | 
Cc1cc(C(N)=O)ccc1-n1c(CCC(=O)O)ccc1-c1ccc(N2CCCCC2)cc1 | 8.78 | 

Now from value to compound, other results behind:

IC50 ([1]; read-out: IC50) [µM] | Compound | also measured
10.2 | Cc1cc(C(N)=O)ccc1-n1c(CCC(=O)O)ccc1-c1ccc(-n2cccc2)cc1 | 
6.96 | Cc1cc(C(N)=O)ccc1-n1c(CCC(=O)O)ccc1-c1ccc(-n2ccnc2C2CC2)cc1 | 
5.14 | Cc1cc(C(N)=O)ccc1-n1c(CCC(=O)O)ccc1-c1ccc(-c2cnn(C)c2)cc1 | 
0.68 | Cc1cc(C(N)=O)ccc1-n1c(CCC(=O)O)ccc1-c1ccc(-c2ccnn2C)cc1 | 
23.9 | Cc1cc(C(N)=O)ccc1-n1c(CCC(=O)O)ccc1-c1ccc(-c2cccnc2)cc1 | 
0.02 | Cc1cc(C(N)=O)ccc1-n1c(CCC(=O)O)ccc1-c1ccc(-n2ccnc2)cc1 [N6022] | IC50 (Cytochrome P450 2C19): 0.77 µM; Activity (Homo sapiens): inactive
1.48 | Cc1cc(C(N)=O)ccc1-n1c(CCC(=O)O)ccc1-c1ccc(-n2cnnc2)cc1 | 
2.66 | Cc1cc(C(N)=O)ccc1-n1c(CCC(=O)O)ccc1-c1ccc(-c2cn[nH]c2)cc1 | 
6.25 | Cc1cn(-c2ccc(-c3ccc(CCC(=O)O)n3-c3ccc(C(N)=O)cc3C)cc2)cn1 | 
0.13 | CCc1nccn1-c1ccc(-c2ccc(CCC(=O)O)n2-c2ccc(C(N)=O)cc2C)cc1 | inhibition at 10 µM (CYP1A2): 6%; inhibition at 10 µM (CYP2C9): 15%; inhibition at 10 µM (CYP2C19): 25%; inhibition at 10 µM (CYP2D6): 20%; inhibition at 10 µM (CYP3A4): 27%
5.19 | Cc1cc(C(N)=O)ccc1-n1c(CCC(=O)O)ccc1-c1ccc(-n2cnnn2)cc1 | 
6.52 | Cc1cc(C(N)=O)ccc1-n1c(CCC(=O)O)ccc1-c1ccc(-c2ccco2)cc1 | 
0.51 | Cc1cc(C(N)=O)ccc1-n1c(CCC(=O)O)ccc1-c1ccc(-c2ccoc2)cc1 | 
11.8 | Cc1cc(C(N)=O)ccc1-n1c(CCC(=O)O)ccc1-c1ccc(N2CCCC2)cc1 | 
4.74 | Cc1cc(C(N)=O)ccc1-n1c(CCC(=O)O)ccc1-c1ccc(-n2cccn2)cc1 | 
50.6 | Cc1cc(C(N)=O)ccc1-n1c(CCC(=O)O)ccc1-c1ccc(N2CCNC2=O)cc1 | 
43.9 | Cc1cc(C(N)=O)ccc1-n1c(CCC(=O)O)ccc1-c1ccc(N2CCNCC2)cc1 | 
0.075 | Cc1cc(C(N)=O)ccc1-n1c(CCC(=O)O)ccc1-c1ccc(-n2ccnc2C)cc1 | inhibition at 10 µM (CYP1A2): 11%; inhibition at 10 µM (CYP2C9): 20%; inhibition at 10 µM (CYP2C19): 55%; inhibition at 10 µM (CYP2D6): 11%; inhibition at 10 µM (CYP3A4): 31%
13.3 | Cc1cc(C(N)=O)ccc1-n1c(CCC(=O)O)ccc1-c1ccc(-n2ccnn2)cc1 | 
2.31 | Cc1cc(C(N)=O)ccc1-n1c(CCC(=O)O)ccc1-c1ccc(-n2ccnc2CO)cc1 | 
